{"source": "patent US20100144755A1", "about": "(Glaxo Group Limited, priority 2006, published 2010)", "note": "Counter-ions that a name gives are not always drawn.", "data": [{"tested_on": "influx of neutrophils to the lung in LPS-challenged rats", "experiment": "Rat LPS neutrophilia model", "type": "in vivo", "details": "LPS aerosol, intratracheal dosing, in at least one of the range of conditions tested, significance p<0.05", "procedure": "Rat LPS Neutrophilia Model\nThe effect of compounds on the influx of neutrophils to the lung in LPS-challenged rats is evaluated as follows. The test compound is suspended in one of the following solutions: 0.5% tween 80/PBS, 0.5% tween 80/saline, 10% EtOH/saline (with pH adjusted to 2.0, or 8.0 with HCl, or unadjusted), Saline @pH 2.0, 6.5 or 8.0, 0.5% Tragacanth, 1% DMSO/20% Encapsin/Saline, or acidified 5% Tragacanth. The suspension process may be aided by the use of a glass homogenizer. For intratracheal administration, the animals are anesthetized with inhaled isoflurane and placed in a supine position, the trachea is intubated with a steel gavage needle (1.5 inch, 22 gauge, small ball) or a Penn-Century Microsprayer Aerosolizer (model IA-1B) and 200 ul of dosing solution is delivered. The animals are visually monitored during the recovery process, which typically occurs within two minutes. It is noted that the test compounds may be alternatively administered via the microsprayer in a dry powder blend with a suitable excipient, such as lactose.\nRats treated with compound or vehicle (15 min-24 hours pretreatment) are exposed to an LPS aerosol (100 ug/ml) for 15 min. Four hours later the rats are euthanized with pentobarbital (100 mg/kg, i.p.) and the airways are lavaged with 5 washes of 5 ml of phosphate buffered saline. The harvested cells are stained (Diffquick) and counted to determine total and differential cell data. […] Inhibition of neutrophil levels relative to no compound controls is calculated based on the differential counts.\nThe data is obtained as % inhibition using a particular concentration and pretreat time.", "values": [{"smiles": "Cc1ccc(C(=O)Nc2ccc(F)cc2)cc1-c1nc(NC2CC(C)(C)NC(C)(C)C2)nc2c1ccc(=O)n2-c1c(F)cccc1F", "note": "[Example 66, 3-{8-(2,6-difluorophenyl)-7-oxo-2-[(2,2,6,6-tetramethyl-4-piperidinyl)amino]-7,8-dihydropyrido[2,3-d]pyrimidin-4-yl}-N-(4-fluorophenyl)-4-methylbenzamide]", "inhibition of neutrophilia": "statistically significant inhibition"}, {"smiles": "Cc1ccc(C(=O)NC(C)C)cc1-c1nc(NCCN(C)C)nc2c1ccc(=O)n2-c1c(F)cccc1F", "note": "[Example 117, 3-(8-(2,6-difluorophenyl)-2-{[2-(dimethylamino)ethyl]amino}-7-oxo-7,8-dihydropyrido[2,3-d]pyrimidin-4-yl)-4-methyl-N-(1-methylethyl)benzamide]", "inhibition of neutrophilia": "statistically significant inhibition"}, {"smiles": "Cc1ccc(C(=O)NC2CCCC2)cc1-c1nc(NCc2ncc[nH]2)nc2c1ccc(=O)n2-c1c(F)cccc1F", "note": "[Example 76, N-cyclopentyl-3-{8-(2,6-difluorophenyl)-2-[(1H-imidazol-2-ylmethyl)amino]-7-oxo-7,8-dihydropyrido[2,3-d]pyrimidin-4-yl}-4-methylbenzamide]", "inhibition of neutrophilia": "statistically nonsignificant inhibition"}, {"smiles": "Cc1ccc(C(=O)NCC(F)(F)F)cc1-c1nc(N2CCC(N3CCC(C)CC3)CC2)nc2c1ccc(=O)n2-c1c(F)cccc1F", "note": "[Example 172, 3-[8-(2,6-difluorophenyl)-2-(4-methyl-1,4′-bipiperidin-1′-yl)-7-oxo-7,8-dihydropyrido[2,3-d]pyrimidin-4-yl]-4-methyl-N-(2,2,2-trifluoroethyl)benzamide]", "inhibition of neutrophilia": "inactive"}, {"smiles": "CCN(CC)CCCNc1nc(-c2cc(C(=O)NCC3CC3)ccc2C)c2ccc(=O)n(-c3c(F)cccc3F)c2n1", "note": "[Example 138, N-(cyclopropylmethyl)-3-[2-{[3-(diethylamino)propyl]amino}-8-(2,6-difluorophenyl)-7-oxo-7,8-dihydropyrido[2,3-d]pyrimidin-4-yl]-4-methylbenzamide trifluoroacetate]", "inhibition of neutrophilia": "statistically nonsignificant inhibition"}, {"smiles": "Cc1ccc(C(=O)NCC2CC2)cc1-c1nc(N2CCC(N)CC2)nc2c1ccc(=O)n2-c1c(F)cccc1F", "note": "[Example 27, 3-[2-(4-amino-1-piperidinyl)-8-(2,6-difluorophenyl)-7-oxo-7,8-dihydropyrido[2,3-d]pyrimidin-4-yl]-N-(cyclopropylmethyl)-4-methylbenzamide]", "inhibition of neutrophilia": "statistically significant inhibition"}, {"smiles": "CNCCNc1nc(-c2cc(C(=O)NCC3CC3)ccc2C)c2ccc(=O)n(-c3c(F)cccc3F)c2n1", "note": "[Example 4]", "inhibition of neutrophilia": "statistically significant inhibition"}, {"smiles": "CNCCNc1nc(-c2cc(C(=O)NC3CCCC3)ccc2C)c2ccc(=O)n(-c3c(F)cccc3F)c2n1", "note": "[Example 58, N-cyclopentyl-3-(8-(2,6-difluorophenyl)-2-{[2-(methylamino)ethyl]amino}-7-oxo-7,8-dihydropyrido[2,3-d]pyrimidin-4-yl)-4-methylbenzamide]", "inhibition of neutrophilia": "statistically significant inhibition"}, {"smiles": "CNCCNc1nc(-c2cc(C(=O)NC(C)C)ccc2C)c2ccc(=O)n(-c3c(F)cccc3F)c2n1", "note": "[Example 57, 3-(8-(2,6-difluorophenyl)-2-{[2-(methylamino)ethyl]amino}-7-oxo-7,8-dihydropyrido[2,3-d]pyrimidin-4-yl)-4-methyl-N-(1-methylethyl)benzamide]", "inhibition of neutrophilia": "statistically significant inhibition"}, {"smiles": "Cc1ccc(C(=O)Nc2nccs2)cc1-c1nc(NCCCNC(C)C)nc2c1ccc(=O)n2-c1c(F)cccc1F", "note": "[Example 101, 3-[8-(2,6-difluorophenyl)-2-({3-[(1-methylethyl)amino]propyl}amino)-7-oxo-7,8-dihydropyrido[2,3-d]pyrimidin-4-yl]-4-methyl-N-1,3-thiazol-2-ylbenzamide]", "inhibition of neutrophilia": "statistically significant inhibition"}]}]}
